Measured values taken from patent US9695163B2, “Thiazole orexin receptor antagonists” (MERCK SHARP & DOHME CORP., priority 2013, dated 2017).

Legend:
[1] = molecular target: human orexin-2 receptor (hOX2R) (Homo sapiens (Human), UniProt O43614); assay: FLIPR Ca2+ Flux Assay, CHO cells expressing human orexin-2 receptor; type: cell-based; details: agonist Ala-6,12 human orexin-A 70 pM
Protocol: Briefly, for intracellular calcium measurements, Chinese hamster ovary (CHO) cells expressing the orexin-1 receptor (e.g., rat or human) or the orexin-2 receptor (e.g., rat or human), are grown in Iscove's modified DMEM containing 2 mM L-glutamine, […], 1% hypoxanthine-thymidine supplement, 100 U/ml penicillin, 100 μg/ml streptomycin and 10% heat-inactivated fetal calf serum (FCS). The cells are seeded at approximately 20,000 cells per well into 384-well clear bottom sterile plates coated with poly-D-lysine. The seeded plates are incubated overnight at 37° C. and 5% CO2. Human ala-6,12 orexin-A can be used as the agonist and prepared as a 1 mM stock solution in 1% bovine serum albumin (BSA) and diluted in assay buffer (HBSS containing 20 mM HEPES, 0.1% BSA and 2.5 mM probenecid, pH7.4) for use in the assay at a final concentration of 70 pM. Test compounds are prepared as 10 mM stock solution in DMSO, then diluted in 384-well plates, first in DMSO, then in assay buffer. On the day of the assay, cells are washed 3 times with 100 μl assay buffer and then incubated for 60 minutes (37° C., 5% CO2) in 60 μl assay buffer containing 1 μM Fluo-4 AM ester, 0.02% pluronic acid, and 1% BSA. The dye loading solution is then aspirated and cells are washed 3 times with 100 μl assay buffer. 30 μl of that same buffer is left in each well. Within the Fluorescent Imaging Plate Reader (FLIPR, Molecular Devices), test compounds are added to the plate in a volume of 25 μl, incubated for 5 minutes, and then 25 μl of agonist is added. Fluorescence is measured for each well at 1 second intervals for 5 minutes, and the height of each fluorescence peak is compared to the height of the fluorescence peak induced by 70 pM of agonist ala-6,12 orexin-A with buffer in place of test compound. IC50 value for the test compound is determined to be the concentration of compound needed to inhibit 50% of the agonist response. Alternatively, compound potency can be assessed using a radioligand binding assay (described in Bergman et. al., Bioorg. Med. Chem. Lett. 2008, 18:1425-1430) in which the inhibition constant (Ki) is determined in membranes prepared from CHO cells expressing either the OX1 or OX2 receptor. The intrinsic orexin receptor antagonist activity of a compound of the present invention may be determined by these assays. […]

[2] = molecular target: human orexin-1 receptor (hOX1R) (Homo sapiens (Human), UniProt O43613); assay: FLIPR Ca2+ Flux Assay, CHO cells expressing human orexin-1 receptor; type: cell-based; details: agonist Ala-6,12 human orexin-A 70 pM
From the text: The utility of the compounds in accordance with the present invention as orexin receptor OX1R and/or OX2R antagonists may be readily determined without undue experimentation by methodology well known in the art, including the “FLIPR Ca^2+ Flux Assay” (Okumura et al., Biochem. Biophys. Res. Comm. 2001, 280:976-981). Briefly, for intracellular calcium measurements, Chinese hamster ovary (CHO) cells expressing the orexin-1 receptor (e.g., rat or human) or the orexin-2 receptor (e.g., rat or human), are grown in Iscove's modified DMEM containing 2 mM L-glutamine, […], 1% hypoxanthine-thymidine supplement, 100 U/ml penicillin, 100 μg/ml streptomycin and 10% heat-inactivated fetal calf serum (FCS). The cells are seeded at approximately 20,000 cells per well into 384-well clear bottom sterile plates coated with poly-D-lysine. The seeded plates are incubated overnight at 37° C. and 5% CO2. Human ala-6,12 orexin-A can be used as the agonist and prepared as a 1 mM stock solution in 1% bovine serum albumin (BSA) and diluted in assay buffer (HBSS containing 20 mM HEPES, 0.1% BSA and 2.5 mM probenecid, pH7.4) for use in the assay at a final concentration of 70 pM. Test compounds are prepared as 10 mM stock solution in DMSO, then diluted in 384-well plates, first in DMSO, then in assay buffer. On the day of the assay, cells are washed 3 times with 100 μl assay buffer and then incubated for 60 minutes (37° C., 5% CO2) in 60 μl assay buffer containing 1 μM Fluo-4 AM ester, 0.02% pluronic acid, and 1% BSA. The dye loading solution is then aspirated and cells are washed 3 times with 100 μl assay buffer. 30 μl of that same buffer is left in each well. Within the Fluorescent Imaging Plate Reader (FLIPR, Molecular Devices), test compounds are added to the plate in a volume of 25 μl, incubated for 5 minutes, and then 25 μl of agonist is added. Fluorescence is measured for each well at 1 second intervals for 5 minutes, and the height of each fluorescence peak is compared to the height of the fluorescence peak induced by 70 pM of agonist ala-6,12 orexin-A with buffer in place of test compound. IC50 value for the test compound is determined to be the concentration of compound needed to inhibit 50% of the agonist response. Alternatively, compound potency can be assessed using a radioligand binding assay (described in Bergman et. al., Bioorg. Med. Chem. Lett. 2008, 18:1425-1430) in which the inhibition constant (Ki) is determined in membranes prepared from CHO cells expressing either the OX1 or OX2 receptor. The intrinsic orexin receptor antagonist activity of a compound of the present invention may be determined by these assays.

human orexin-1 receptor (hOX1R), sequence (O43613 whole entry): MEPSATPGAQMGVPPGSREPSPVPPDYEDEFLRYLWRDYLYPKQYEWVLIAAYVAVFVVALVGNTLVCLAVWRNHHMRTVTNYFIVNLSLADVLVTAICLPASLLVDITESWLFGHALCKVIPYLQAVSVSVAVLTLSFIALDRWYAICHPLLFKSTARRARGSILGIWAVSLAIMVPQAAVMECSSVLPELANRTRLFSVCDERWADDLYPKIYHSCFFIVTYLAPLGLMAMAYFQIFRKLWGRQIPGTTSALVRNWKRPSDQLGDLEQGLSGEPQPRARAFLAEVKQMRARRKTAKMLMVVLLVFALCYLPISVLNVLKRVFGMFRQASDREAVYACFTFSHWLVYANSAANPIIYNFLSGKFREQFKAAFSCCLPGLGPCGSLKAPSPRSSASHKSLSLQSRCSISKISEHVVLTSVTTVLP
human orexin-2 receptor (hOX2R), sequence (O43614 whole entry): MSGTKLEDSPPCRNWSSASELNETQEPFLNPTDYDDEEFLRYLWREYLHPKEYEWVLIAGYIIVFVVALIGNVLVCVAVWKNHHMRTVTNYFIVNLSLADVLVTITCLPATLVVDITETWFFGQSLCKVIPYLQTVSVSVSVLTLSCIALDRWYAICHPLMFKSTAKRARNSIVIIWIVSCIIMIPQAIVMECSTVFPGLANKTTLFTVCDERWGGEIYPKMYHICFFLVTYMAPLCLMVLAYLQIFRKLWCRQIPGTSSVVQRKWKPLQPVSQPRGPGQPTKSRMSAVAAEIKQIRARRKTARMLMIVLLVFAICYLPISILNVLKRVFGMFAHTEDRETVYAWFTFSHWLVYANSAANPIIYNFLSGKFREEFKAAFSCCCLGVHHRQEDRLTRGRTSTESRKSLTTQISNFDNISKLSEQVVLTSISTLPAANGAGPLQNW

Compound | IC50 [1] | IC50 [2]
C[C@@H]1CC[C@@H](c2nc([C@@H](O)C(F)F)cs2)CN1C(=O)c1ccccc1-n1nccn1 [Example 8] | 133 nM | > 10000 nM
C[C@@H]1CC[C@@H](c2ncc(C(C)(C)O)s2)CN1C(=O)c1ccccc1-n1nccn1 [Example 2, (2-(2H-1,2,3-Triazol-2-yl)phenyl)((2R,5R)-5-(5-(2-hydroxypropan-2-yl)thiazol-2-yl)-2-methylpiperidin-1-yl)methanone] | 67 nM | > 10000 nM
Cc1sc([C@@H]2CC[C@@H](C)N(C(=O)c3cscc3-c3ncccn3)C2)nc1C(C)(C)O [Example 28, ((2R,5R)-5-(4-(2-Hydroxypropan-2-yl)-5-methylthiazol-2-yl)-2-methylpiperidin-1-yl)(4-(pyrimidin-2-yl)thiophen-3-yl)methanone] | 29 nM | 900 nM
Cc1sc([C@@H]2CC[C@@H](C)N(C(=O)c3ccccc3-n3ncnn3)C2)nc1C(C)(C)O [Example 24, (2-(2H-Tetrazol-2-yl)phenyl)((2R,5R)-5-(4-(2-hydroxypropan-2-yl)-5-methylthiazol-2-yl)-2-methylpiperidin-1-yl)methanone] | 19 nM | 2650 nM
C[C@@H]1CC[C@@H](c2cnc(C(C)(C)O)s2)CN1C(=O)c1ccccc1-n1nccn1 [Example 4, (2-(2H-1,2,3-triazol-2-yl)phenyl)((2R,5R)-5-(2-(2-hydroxypropan-2-yl)thiazol-5-yl)-2-methylpiperidin-1-yl)methanone] | 50 nM | > 10000 nM
C[C@@H]1CC[C@@H](c2nc(C(C)(C)O)cs2)CN1C(=O)c1ccsc1-n1nccn1 [Example 10, (2-(2H-1,2,3-triazol-2-yl)thiophen-3-yl)((2R,5R)-5-(4-(2-hydroxypropan-2-yl)thiazol-2-yl)-2-methylpiperidin-1-yl)methanone] | 19 nM | 7400 nM
C[C@@H]1CC[C@@H](c2csc(C(C)(C)O)n2)CN1C(=O)c1ccccc1-c1ncccn1 [Example 33, ((2R,5R)-5-(2-(2-hydroxypropan-2-yl)thiazol-4-yl)-2-methylpiperidin-1-yl)(2-(pyrimidin-2-yl)phenyl)methanone] | 102 nM | > 10000 nM
C[C@@H]1CC[C@@H](c2csc(C(C)(C)O)n2)CN1C(=O)c1ccccc1CS(C)(=O)=O [Example 34, ((2R,5R)-5-(2-(2-hydroxypropan-2-yl)thiazol-4-yl)-2-methylpiperidin-1-yl)(2-((methylsulfonyl)methyl)phenyl)methanone] | 40 nM | > 10000 nM
C[C@@H]1CC[C@@H](c2csc(C(C)(C)O)n2)CN1C(=O)c1ccccc1-n1nccn1 [Example 36, (2-(2H-1,2,3-triazol-2-yl)phenyl)((2R,5R)-5-(2-(2-hydroxypropan-2-yl)thiazol-4-yl)-2-methylpiperidin-1-yl)methanone] | 20 nM | 2300 nM
C[C@@H]1CC[C@@H](c2nc(C(C)(C)O)cs2)CN1C(=O)c1ccsc1-c1ncccn1 [Example 18, ((2R,5R)-5-(4-(2-Hydroxypropan-2-yl)thiazol-2-yl)-2-methylpiperidin-1-yl)(2-(pyrimidin-2-yl)thiophen-3-yl)methanone] | 114 nM | > 10000 nM
C[C@@H]1CC[C@@H](c2csc(C(C)(C)O)n2)CN1C(=O)c1ccsc1-c1ncccn1 [Example 31, ((2R,5R)-5-(2-(2-hydroxypropan-2-yl)thiazol-4-yl)-2-methylpiperidin-1-yl)(2-(pyrimidin-2-yl)thiophen-3-yl)methanone] | 90 nM | > 10000 nM
COC(=O)c1ccccc1C(=O)N1C[C@H](c2nc(C(C)(C)O)cs2)CC[C@H]1C [Example 12, Methyl 2-((2R,5R)-5-(4-(2-hydroxypropan-2-yl)thiazol-2-yl)-2-methylpiperidine-1-carbonyl)benzoate] | 44 nM | > 10000 nM
C[C@@H]1CC[C@@H](c2nc([C@H](O)C(F)F)cs2)CN1C(=O)c1ccccc1-n1nccn1 [Example 9] | 9.4 nM | 520 nM
((2R,5R)-5-(4-(2-Hydroxypropan-2-yl)-5- methylthiazol-2-yl)-2-methylpiperidin-1- yl)(2-(pyrimidin-2-yl)thiophen-3- yl)methanone [Example 27] | 87 nM | 700 nM
C[C@@H]1CC[C@@H](c2nc(C(C)(C)O)cs2)CN1C(=O)c1ccccc1-n1ncnn1 [Example 14, (2-(2H-Tetrazol-2-yl)phenyl)((2R,5R)-5-(4-(2-hydroxypropan-2-yl)thiazol-2-yl)-2-methylpiperidin-1-yl)methanone] | 21 nM | > 10000 nM
C[C@@H]1CC[C@@H](c2csc(C(C)(C)O)n2)CN1C(=O)c1ccc(F)cc1-n1nccn1 [Example 38, (4-Fluoro-2-(2H-1,2,3-triazol-2-yl)phenyl)((2R,5R)-5-(2-(2-hydroxypropan-2-yl)thiazol-4-yl)-2-methylpiperidin-1-yl)methanone] | 14 nM | 2050 nM
C[C@@H]1CC[C@H](c2ncc(C(C)(C)O)s2)CN1C(=O)c1ccccc1-n1nccn1 [Example 3, (2-(2H-1,2,3-Triazol-2-yl)phenyl)((2R,5S)-5-(5-(2-hydroxypropan-2-yl)thiazol-2-yl)-2-methylpiperidin-1-yl)methanone] | 2650 nM | > 10000 nM
C[C@@H]1CC[C@@H](c2nc(C(C)(C)O)cs2)CN1C(=O)c1cscc1-n1nccn1 [Example 15, (4-(2H-1,2,3-Triazol-2-yl)thiophen-3-yl)((2R,5R)-5-(4-(2-hydroxypropan-2-yl)thiazol-2-yl)-2-methylpiperidin-1-yl)methanone] | 16 nM | > 10000 nM
